Experimental data taken from patent US20260125346A1, “Isoquinolinone Derivatives and 4H-Quinolizinone Derivatives and Pharmaceutical Compositions Thereof for the Treatment of Disease” (BeOne Medicines I GmbH, priority 2023, published 2026).

Tests used:
[1] = molecular target: PI3Kα (p110[H1047R]/p85) kinase (Homo sapiens, UniProt P42336, H1047R); assay: PI3Kα (p110[H1047R]/p85) kinase ADP-Glo Assay; type: biochemical; conditions: 25 uM ATP; for selectivity: WT/H1047R: ADP-Glo Assay IC50 ratio
Procedure: PI3Kα (p110[H1047R]/p85) kinase ADP-Glo Assay. Certain compounds disclosed herein were tested for inhibition of PI3Kα (p110[H1047R]/p85) kinase in assays based on the ADP-Glo™ Kinase Assay methodology. The assays were carried out in 384-well white plates in a reaction mixture containing PI3Kα (p110[H1047R]/p85) kinase, 25 µM ATP, 5.35 µg/ml PI(4,5)P2:PS Lipid Kinase Substrate and […] compound in buffer containing 50 mM HEPES pH7.5, 50 mM NaCl, 3 mM MgCl2, 0.0025% BSA and 2 mM DTT. PI3Kα (p110[H1047R]/p85) kinase was incubated with Lipid Kinase Substrate and compound for 30 minutes at room temperature and the reaction was initiated by the addition of ATP.
After reaction at room temperature for 120 minutes, ADP-Glo™ reagents were added to terminate the kinase reaction and deplete the remaining ATP according to the manufacture's instruction (Promega Corporation). After incubation at room temperature for 1 hour, Kinase Detection Reagent (prepared by reconstituting the lyophilized Kinase Detection Substrate with Kinase Detection Buffer of the kit) was added to convert the ADP to ATP and to allow for the newly synthesized ATP to be measured using a luciferase/luciferin reaction. After incubation at room temperature for 0.5 hour, chemiluminescence signals were recorded on a PHERAstar FSX plate reader (BMG Labtech). The chemiluminescence generated in this assay correlates to the amount of ADP generated in the kinase assay, indicating kinase activity. […] The IC50 for each compound was derived from fitting the data to the four-parameter logistic equation by Dotmatics.

[2] = molecular target: PI3Kα (p110/p85) kinase (wild type, "WT") (Homo sapiens, UniProt P42336); assay: PI3Kα (p110/p85) kinase ADP-Glo Assay; type: biochemical; conditions: 25 uM ATP
Chain of PI3Kα (p110/p85) kinase (wild type, "WT") (P42336 whole entry): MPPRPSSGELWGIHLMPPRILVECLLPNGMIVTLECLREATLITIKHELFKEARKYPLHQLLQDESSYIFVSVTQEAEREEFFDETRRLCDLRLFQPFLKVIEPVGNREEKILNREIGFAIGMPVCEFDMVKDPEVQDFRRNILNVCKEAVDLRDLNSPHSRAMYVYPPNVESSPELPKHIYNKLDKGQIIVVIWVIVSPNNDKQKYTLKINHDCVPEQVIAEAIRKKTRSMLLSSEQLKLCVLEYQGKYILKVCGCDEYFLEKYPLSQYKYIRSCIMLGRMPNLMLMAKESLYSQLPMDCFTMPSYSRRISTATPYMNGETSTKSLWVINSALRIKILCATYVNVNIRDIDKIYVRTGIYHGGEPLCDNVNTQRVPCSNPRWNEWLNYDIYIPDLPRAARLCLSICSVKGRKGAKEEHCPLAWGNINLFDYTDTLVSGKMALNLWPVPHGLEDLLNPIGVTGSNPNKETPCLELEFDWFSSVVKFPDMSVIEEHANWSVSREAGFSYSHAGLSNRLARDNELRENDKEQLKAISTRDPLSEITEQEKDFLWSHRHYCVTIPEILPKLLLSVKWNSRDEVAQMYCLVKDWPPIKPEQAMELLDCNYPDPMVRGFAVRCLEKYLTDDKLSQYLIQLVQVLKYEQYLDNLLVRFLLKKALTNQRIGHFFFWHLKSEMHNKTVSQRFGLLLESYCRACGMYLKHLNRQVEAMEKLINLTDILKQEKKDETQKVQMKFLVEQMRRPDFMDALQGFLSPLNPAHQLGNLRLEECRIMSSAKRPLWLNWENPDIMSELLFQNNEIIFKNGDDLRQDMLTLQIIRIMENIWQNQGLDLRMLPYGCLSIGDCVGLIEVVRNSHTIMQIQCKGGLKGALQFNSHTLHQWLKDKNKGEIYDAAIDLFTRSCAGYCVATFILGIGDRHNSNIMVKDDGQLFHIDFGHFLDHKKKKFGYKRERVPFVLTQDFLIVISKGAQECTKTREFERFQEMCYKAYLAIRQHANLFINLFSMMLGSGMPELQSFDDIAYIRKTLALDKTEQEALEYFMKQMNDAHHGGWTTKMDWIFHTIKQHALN
Chain of PI3Kα (p110/p85) kinase (wild type, "WT") (P27986 whole entry partner): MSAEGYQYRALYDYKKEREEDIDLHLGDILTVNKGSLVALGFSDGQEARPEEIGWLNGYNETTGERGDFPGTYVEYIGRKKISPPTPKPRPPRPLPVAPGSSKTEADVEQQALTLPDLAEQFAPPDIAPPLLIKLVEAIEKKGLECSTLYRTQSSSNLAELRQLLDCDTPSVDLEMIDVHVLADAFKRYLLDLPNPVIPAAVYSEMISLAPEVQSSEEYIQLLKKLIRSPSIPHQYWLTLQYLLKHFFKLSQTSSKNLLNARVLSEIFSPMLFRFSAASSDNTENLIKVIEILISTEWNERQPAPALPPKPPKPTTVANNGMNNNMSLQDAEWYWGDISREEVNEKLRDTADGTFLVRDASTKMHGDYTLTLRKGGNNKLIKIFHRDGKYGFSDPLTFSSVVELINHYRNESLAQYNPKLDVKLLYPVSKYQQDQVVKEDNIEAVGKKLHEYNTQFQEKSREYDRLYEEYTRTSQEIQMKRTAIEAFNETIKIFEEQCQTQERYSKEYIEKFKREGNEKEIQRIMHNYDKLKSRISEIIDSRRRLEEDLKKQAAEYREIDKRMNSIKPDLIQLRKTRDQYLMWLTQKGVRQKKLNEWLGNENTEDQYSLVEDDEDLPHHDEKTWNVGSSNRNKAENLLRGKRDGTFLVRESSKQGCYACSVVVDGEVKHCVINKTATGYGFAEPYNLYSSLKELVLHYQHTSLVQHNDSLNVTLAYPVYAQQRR
Procedure: PI3Kα (p110/p85) kinase ADP-Glo Assay. Certain compounds disclosed herein were tested for inhibition of PI3Kα (p110/p85) kinase (wild type, “WT”) in assays based on the ADP-Glo™ Kinase Assay methodology. The assays were carried out in 384-well white plates in a reaction mixture containing PI3Kα (p110/p85) kinase, 25 µM ATP, 5.35 µg/mL PI(4,5)P2:PS Lipid Kinase Substrate and […] compound in buffer containing 50 mM HEPES pH7.5, 50 mM NaCl, 3 mM MgCl2, 0.0025% BSA and 2 mM DTT. PI3Kα (p110/p85) kinase was incubated with Lipid Kinase Substrate and compound for 30 minutes at room temperature and the reaction was initiated by the addition of ATP. After reaction at room temperature for 120 minutes, ADP-Glo™ reagents were added to terminate the kinase reaction and deplete the remaining ATP according to the manufacture's instruction (Promega Corporation). After incubation at room temperature for 1 hour, Kinase Detection Reagent (prepared by reconstituting the lyophilized Kinase Detection Substrate with Kinase Detection Buffer of the kit) was added to convert the ADP to ATP and to allow for the newly synthesized ATP to be measured using a luciferase/luciferin reaction. After incubation at room temperature for 0.5 hour, chemiluminescence signals were recorded on a PHERAstar FSX plate reader (BMG Labtech). The chemiluminescence generated in this assay correlates to the amount of ADP generated in the kinase assay, indicating kinase activity. […] The IC50 for each compound was derived from fitting the data to the four-parameter logistic equation by Dotmatics.

[3] = system: PI3Kα H1047R mutated cell line T-47D cells; assay: Cell Proliferation Assay (CellTiter-Glo), T-47D; type: cell-based; conditions: for IC50: Homo sapiens, T47D, 72 h, T-47D, 3 days treatment; for Selectivity: SK-BR-3/T-47D (cell proliferation): cell proliferation IC50 ratio
Procedure: Cell Culture Maintenance. The T-47D (ATCC, HTB-133) cell line was obtained from the American Type Culture Collection. Cells were maintained in RPMI1640 medium (Gibco, REF #22400105) supplemented with 10% Fetal Bovine Serum (Gibco, REF #10091148). Cultures were maintained in a humidified incubator at 37° C. under 5% CO2/95% air.
(§1) Cell Proliferation Assay. PI3Kα H1047R mutated cell line T-47D cells and WT cell line SK-BR-3 were seeded at a density of 3×10^3 cells per well in 96 well plate (Xinyou Biotechnology, 062096) in 95 μL of culture medium, overnight. Compounds dissolved in 10 mM stock solutions in DMSO were serially diluted 1:3 in DMSO to generate a 9-point dilution series and plated using an INTEGRA ASSIST Plus pipetting robot. A 20× intermediate compound dilution plate in RPMI1640 medium (200 M starting compound concentration in 2% DMSO) was then prepared. Five μL of intermediate serially diluted compounds were added to the cell plate to final concentrations ranging from […] to 1 nM in 0.1% DMSO. 0.1% DMSO alone was used to establish the maximum signal and medium without cells was for minimum signal. After 3 days treatment, equilibrated the plate and its contents at room temperature for approximately 30 minutes. Added 30 μL CellTiter-Glo® Reagent (Promega, REF #G7571) to each well. Then mixed contents for 5 min on plate shaker to induce cell lysis. Incubated at room temperature for 10 minutes to stabilize luminescent signal. The plates were read on PHERAstar FSX Microplate reader using standard luminescence settings.
(§2) Relative IC50 values were determined using luminescence units by calculating percent inhibition with respect to the in-plate “MIN” (medium only) and “MAX” (0.1% DMSO) controls. The data were analyzed using a 4-parameter nonlinear logistic equation (four-parameter logistic concentration-response curve): Y=bottom+[(top−bottom)/1+(X/IC50) slope] • where Y=% inhibition, X=concentration of inhibitor, bottom=minimum value of y attained by curve-fit, top=maximum value of y attained by curve-fit and slope=steepness of curve at the IC50.

WT cell line SK-BR-3 = assay: Cell Proliferation Assay (CellTiter-Glo), SK-BR-3; type: cell-based; conditions: Homo sapiens, 72 h; SK-BR-3, 3 days treatment
Procedure: The SK-BR-3 (ATCC, HTB-30) cell line was obtained from the American Type Culture Collection. Cells were maintained in McCoy' 5A medium (Gibco, REF #16600108) supplemented with 10% Fetal Bovine Serum. Cultures were maintained in a humidified incubator at 37° C. under 5% CO2/95% air.
as §1, §2

Chain of PI3Kα (p110[H1047R]/p85) kinase (P42336 whole entry H1047R): as the sequence (P42336 whole entry) above, with H1047R counted along it
Chain of PI3Kα (p110[H1047R]/p85) kinase (P27986 whole entry partner): as the sequence (P27986 whole entry partner) above

IC50 [1] [µM]	selectivity: WT/H1047R [1]	IC50 [2] [µM]	IC50 [3] [µM]	IC50 (WT cell line SK-BR-3) [µM]	Compound	Selectivity: SK-BR-3/T-47D (cell proliferation) [3]
1.03	38.2	39.2	9.34	> 10	Cc1cc(C(C)Nc2ccccc2C(=O)O)c2cc(NC(=O)c3ccccc3)n(C)c(=O)c2c1 (stereo not drawn) [Example 24, 2-((1-(3-benzamido-2,7-dimethyl-1-oxo-1,2-dihydroisoquinolin-5-yl)ethyl)amino)benzoic acid]	>1.07
0.376	27.6	10.4	3.23	> 10	Cc1cc(C(C)Nc2ccccc2C(=O)O)c2cc(-c3cccc(C(F)(F)F)c3)n(C)c(=O)c2c1 (stereo not drawn) [Example 50, 2-((1-(2,7-dimethyl-1-oxo-3-(3-(trifluoromethyl)phenyl)-1,2-dihydroisoquinolin-5-yl)ethyl)amino)benzoic acid]	>3.1
0.192	30.3	5.82	0.233	> 10	COc1cccc(-c2cc3c(C(C)Nc4ccccc4C(=O)O)cc(C)cc3c(=O)n2C)c1 (stereo not drawn) [Example 13, 2-((1-(3-(3-methoxyphenyl)-2,7-dimethyl-1-oxo-1,2-dihydroisoquinolin-5-yl)ethyl)amino)benzoic acid]	>43
> 100	<0.9	88.4	> 10	> 10	Cc1cc([C@H](C)Nc2ccccc2C(=O)O)c2cc(-c3ccc(C(C)(C)O)nc3)n(C)c(=O)c2c1 [Example 57, (S)-2-((1-(3-(6-(2-hydroxypropan-2-yl)pyridin-3-yl)-2,7-dimethyl-1-oxo-1,2-dihydroisoquinolin-5-yl)ethyl)amino)benzoic acid]	–
> 100	–	> 100	> 10	> 10	Cc1cc([C@H](C)Nc2ccccc2C(=O)O)c2cc(-c3ccccc3)n(C)c(=O)c2c1 [Example 31, (S)-2-((1-(2,7-dimethyl-1-oxo-3-phenyl-1,2-dihydroisoquinolin-5-yl)ethyl)amino)benzoic acid]	–
0.974	32.3	31.4	0.27	> 10	Cc1cc(C(C)Nc2ccccc2C(=O)O)c2cc(-c3ccc4c(c3)C(=O)N(C)C4)n(C)c(=O)c2c1 (stereo not drawn) [Example 75, 2-((1-(2,7-dimethyl-3-(2-methyl-3-oxoisoindolin-5-yl)-1-oxo-1,2-dihydroisoquinolin-5-yl)ethyl)amino)benzoic acid]	>37
0.121	11.1	1.34	2.54	> 10	CC(Nc1ccccc1C(=O)O)c1cccc2c(=O)n(C)c(C#Cc3ccccc3)cc12 (stereo not drawn) [Example 21, 2-((1-(2-methyl-1-oxo-3-(phenylethynyl)-1,2-dihydroisoquinolin-5-yl)ethyl)amino)benzoic acid]	>3.93
1.03	25.4	26.1	0.171	> 10	Cc1cc(C(C)Nc2ccccc2C(=O)O)c2cc(-c3ccc(C4(O)CCOCC4)cc3)n(C)c(=O)c2c1 (stereo not drawn) [Example 73, 2-((1-(3-(4-(4-hydroxytetrahydro-2H-pyran-4-yl)phenyl)-2,7-dimethyl-1-oxo-1,2-dihydroisoquinolin-5-yl)ethyl)amino)benzoic acid]	>59
0.872	24.2	21.1	0.245	> 10	Cc1cc(C(C)Nc2ccccc2C(=O)O)c2cc(-c3ccc4c(c3)CN(C)C4=O)n(C)c(=O)c2c1 (stereo not drawn) [Example 70, 2-((1-(2,7-dimethyl-3-(2-methyl-1-oxoisoindolin-5-yl)-1-oxo-1,2-dihydroisoquinolin-5-yl)ethyl)amino)benzoic acid]	>41
0.21	100.2	21.1	0.49	> 10	Cc1cc(C(C)Nc2ccccc2C(=O)O)c2cc(-c3ccc(F)cc3F)n(C)c(=O)c2c1 (stereo not drawn) [Example 11, 2-((1-(3-(2,4-difluorophenyl)-2,7-dimethyl-1-oxo-1,2-dihydroisoquinolin-5-yl)ethyl)amino)benzoic acid]	>20.42
0.091	47.6	4.33	0.284	> 10	Cc1cc(C(C)Nc2ccccc2C(=O)O)c2cc(-c3ccc(F)cc3)n(C3COC3)c(=O)c2c1 (stereo not drawn) [Example 95, 2-((1-(3-(4-fluorophenyl)-7-methyl-2-(oxetan-3-yl)-1-oxo-1,2-dihydroisoquinolin-5-yl)ethyl)amino)benzoic acid]	>35
0.304	10.8	3.28	0.254	> 10	Cc1cc(C(C)Nc2ccccc2C(=O)O)c2cc(C#Cc3cnn(C)c3)n(C)c(=O)c2c1 (stereo not drawn) [Example 80, 2-((1-(2,7-dimethyl-3-((1-methyl-1H-pyrazol-4-yl)ethynyl)-1-oxo-1,2-dihydroisoquinolin-5-yl)ethyl)amino)benzoic acid]	>39.4
0.24	15.3	3.67	0.591	> 10	Cc1cc(C(C)Nc2ccccc2C(=O)O)c2cc(-c3cnn(-c4ccc(C(N)=O)cn4)c3)n(C)c(=O)c2c1 (stereo not drawn) [Example 16, 2-((1-(3-(1-(5-carbamoylpyridin-2-yl)-1H-pyrazol-4-yl)-2,7-dimethyl-1-oxo-1,2-dihydroisoquinolin-5-yl)ethyl)amino)benzoic acid]	>17
